The values below come from ChEMBL document CHEMBL1165990, “Semi-synthetic analogues of thiostrepton delimit the critical nature of tail region modifications in the control of protein biosynthesis and antibacterial activity” (Bioorg Med Chem, 2010).

Data set [1] deals with Escherichia coli. Description: Antibacterial activity against Escherichia coli by NCCLS method. In kind it is functional.
Data set [2] has as its system Bacillus subtilis. Description: Antibacterial activity against Bacillus subtilis ATCC 6633 by NCCLS method. Type of data set: functional.
For data set [3], the system named is Staphylococcus aureus. Description: Antibacterial activity against Staphylococcus aureus ATCC 6338 by NCCLS method. Type of data set: functional.
The test system of data set [4] is Bacillus subtilis. Description: Antibacterial activity against Bacillus subtilis ATCC 6633 by disk diffusion assay. In kind it is functional. (A growth-free zone around the sample is the usual read-out of agar diffusion tests.)
Data set [5] concerns Staphylococcus aureus. Description: Antibacterial activity against Staphylococcus aureus ATCC 6338 by disk diffusion assay. In kind it is functional.
For data set [6], the system named is Escherichia coli. Description: Antibacterial activity against Escherichia coli by disk diffusion assay. Type of data set: functional.
Data set [7] has as its system Escherichia coli. Description: Antibacterial activity against Escherichia coli assessed as inhibition of protein synthesis at 0.1 to 0.4 uM after 60 mins by luminescence assay. In kind it is functional, organism-based.
Data set [8] concerns Escherichia coli. Description: Antibacterial activity against Escherichia coli assessed as inhibition of protein synthesis after 60 mins by luminescence assay. In kind it is functional, organism-based.
Data set [9] can be described thus: Aqueous solubility of the compound. Type of data set: physicochemical. The note with it: buffer.
Data set [10] has as its system Escherichia coli. Description: Antibacterial activity against Escherichia coli assessed as inhibition of protein synthesis at 0.01 to 0.96 uM after 60 mins by luminescence assay. In kind it is functional, organism-based.

The source made the active and inactive calls. The calls are words filed in the database; no cut-off is given here.

A word on the MIC: it is the least concentration at which growth counts as inhibited. Read a low MIC as greater potency. Regarding `C=C(NC(=O)c1csc(C2=N[C@@H]3c4csc(n4)[C@H]4NC(=O)c5csc(n5)[C@H]([C@](C)(O)[C@H](C)O)NC(=O)[C@H]5CSC(=N5)/C(=C/C)NC(=O)[C@H]([C@@H](C)O)NC(=O)c5csc(n5)[C@]3(CC2)NC(=O)[C@H](C)NC(=O)C(=C)NC(=O)[C@H](C)NC(=O)[C@H]([C@@H](C)CC)N[C@@H]2C=Cc3c([C@H](C)O)cc(nc3[C@H]2O)C(=O)O[C@@H]4C)n1)C(=O)NC(CSC[C@@H](C)C(=O)N1CCC[C@H]1C(=O)O)C(N)=O` (stereo in doubt; 4) [listing 1 of 2 here], the MIC against Escherichia coli [1] was not below 128 µg/mL; in the data set on Bacillus subtilis [2], not above 32 µg/mL; against Staphylococcus aureus [3] it was not above 32 µg/mL.

With `C=C(NC(=O)c1csc(C2=N[C@@H]3c4csc(n4)[C@H]4NC(=O)c5csc(n5)[C@H]([C@](C)(O)[C@H](C)O)NC(=O)[C@H]5CSC(=N5)/C(=C/C)NC(=O)[C@H]([C@@H](C)O)NC(=O)c5csc(n5)[C@]3(CC2)NC(=O)[C@H](C)NC(=O)C(=C)NC(=O)[C@H](C)NC(=O)[C@H]([C@@H](C)CC)N[C@@H]2C=Cc3c([C@H](C)O)cc(nc3[C@H]2O)C(=O)O[C@@H]4C)n1)C(=O)NC(CS[C@@H]1O[C@H](CO)[C@@H](O)[C@H](O)[C@H]1O)C(N)=O` (stereo partly drawn), the MIC in the data set with Bacillus subtilis [4], in the data set on Staphylococcus aureus [5] and in the data set on Escherichia coli [6] was not below 50 µg/mL each time.

For the compound `C=C(NC(=O)c1csc(C2=N[C@@H]3c4csc(n4)[C@H]4NC(=O)c5csc(n5)[C@H]([C@](C)(O)[C@H](C)O)NC(=O)[C@H]5CSC(=N5)/C(=C/C)NC(=O)[C@H]([C@@H](C)O)NC(=O)c5csc(n5)[C@]3(CC2)NC(=O)[C@H](C)NC(=O)C(=C)NC(=O)[C@H](C)NC(=O)[C@H]([C@@H](C)CC)N[C@@H]2C=Cc3c([C@H](C)O)cc(nc3[C@H]2O)C(=O)O[C@@H]4C)n1)C(=O)NC(CSCCS(=O)(=O)O)C(N)=O` (stereo partly drawn), the inhibition result in the data set on Escherichia coli [7] was “Active”. For the same compound, the results for the MIC against Escherichia coli [1], against Bacillus subtilis [2] and in the data set with Staphylococcus aureus [3] were not below 128 µg/mL, not above 8 µg/mL and not above 2 µg/mL, respectively. Also, the inhibition result with Escherichia coli [8] was “Dose-dependent effect”. Moreover, the solubility result in [9] is “Soluble”.

For `C=C(NC(=O)c1csc(C2=N[C@@H]3c4csc(n4)[C@H]4NC(=O)c5csc(n5)[C@H]([C@](C)(O)[C@H](C)O)NC(=O)[C@H]5CSC(=N5)/C(=C/C)NC(=O)[C@H]([C@@H](C)O)NC(=O)c5csc(n5)[C@]3(CC2)NC(=O)[C@H](C)NC(=O)C(=C)NC(=O)[C@H](C)NC(=O)[C@H]([C@@H](C)CC)N[C@@H]2C=Cc3c([C@H](C)O)cc(nc3[C@H]2O)C(=O)O[C@@H]4C)n1)C(=O)NC(CSC[C@@H](C)C(=O)N1CCC[C@H]1C(=O)O)C(N)=O` (stereo in doubt; 3), in the data set on Escherichia coli [7], the inhibition entry is “Active”.

With `C=C(NC(=O)C(=C)NC(=O)c1csc(C2=N[C@@H]3c4csc(n4)[C@H]4NC(=O)c5csc(n5)[C@H]([C@](C)(O)[C@@H](C)O)NC(=O)[C@H]5CSC(=N5)/C(=C/C)NC(=O)[C@H]([C@@H](C)O)NC(=O)c5csc(n5)[C@]3(CC2)NC(=O)[C@H](C)NC(=O)C(=C)NC(=O)[C@H](C)NC(=O)[C@H]([C@@H](C)CC)N[C@@H]2C=Cc3c([C@H](C)O)cc(nc3[C@H]2O)C(=O)O[C@@H]4C)n1)C(N)=O` [THIOSTREPTON], the MIC was not below 32 µg/mL with Escherichia coli [1], not above 0.25 µg/mL against Bacillus subtilis [2] and not above 0.0625 µg/mL against Staphylococcus aureus [3]. The inhibition entry with Escherichia coli [10] was “Active”.

Consider `C=C(NC(=O)c1csc(C2=N[C@@H]3c4csc(n4)[C@H]4NC(=O)c5csc(n5)[C@H]([C@](C)(O)[C@H](C)O)NC(=O)[C@H]5CSC(=N5)/C(=C/C)NC(=O)[C@H]([C@@H](C)O)NC(=O)c5csc(n5)[C@]3(CC2)NC(=O)[C@H](C)NC(=O)C(=C)NC(=O)[C@H](C)NC(=O)[C@H]([C@@H](C)CC)N[C@@H]2C=Cc3c([C@H](C)O)cc(nc3[C@H]2O)C(=O)O[C@@H]4C)n1)C(=O)NC(CSC[C@@H](C)C(=O)N1CCC[C@H]1C(=O)O)C(N)=O` (stereo in doubt; 4) [listing 2 of 2 here], for which, in the data set on Escherichia coli [7], the inhibition result was “Active”.
